System: HPV18 PsV
Experiment: Peptide inhibition of HPV18 PsV infection of HeLa-S3 cells, flow cytometry for HcRed
Format: cell-based
Conditions: 14 μM peptide, MOI of one, 48 h.p.i.
Source text: FIG. 18A (top) depicts sequences of L2 peptides. […] Amino acid substitutions in the CPP or RBS mutant peptides are shown in orange and blue, respectively. Bottom: RBS and flanking sequences of indicated HPV L2 proteins or DMT1-II. FIG. 18B depicts an inhibitory dose-response curve for P16/16 peptide. 5×10^4 HeLa-S3 in 24-well plates were pretreated with various concentrations of P16/16 for one hour prior to infection with HPV pseudovirus (PsV) at multiplicity of infection (MOI) of 1. Peptide was left in the medium for the duration of the experiment. Cells were assessed by flow cytometry to determine the fraction of cells expressing reporter protein HcRed at 48 hours post-infection (h.p.i.). […] Forty-eight h.p.i., cells were assessed by flow cytometry to determine fraction of cells expressing reporter protein HcRed. […] HaCaT keratinocytes were infected at MOI of 1 with HPV16 PsV in the presence and absence of 14 μM P16/16, and infectivity was assessed 48 h.p.i. by flow cytometry for HcRed fluorescence. […] Successful infection by HPV16 and HPV16 PsV was assessed by quantitative reverse transcription-PCR (qRT-PCR) for expression of HPV early region and HcRed mRNA, respectively, and normalized to infection by the cognate virus in the absence of peptide. Background signal determined with non-cognate primers was <0.01%. […]

CC[C@H](C)[C@H](NC(=O)[C@@H](NC(=O)[C@H](Cc1ccc(O)cc1)NC(=O)[C@H](CCC(N)=O)NC(=O)[C@@H]1CCCN1C(=O)[C@H](CO)NC(=O)[C@@H](N)CS)[C@@H](C)O)C(=O)N[C@H](C(=O)N[C@@H](C)C(=O)N[C@@H](CC(=O)O)C(=O)N[C@@H](C)C(=O)NCC(=O)N[C@@H](CC(=O)O)C(=O)N[C@@H](Cc1ccccc1)C(=O)N[C@@H](Cc1ccc(O)cc1)C(=O)N[C@@H](CC(C)C)C(=O)N[C@@H](Cc1c[nH]cn1)C(=O)N1CCC[C@H]1C(=O)N[C@@H](CO)C(=O)N[C@@H](Cc1ccc(O)cc1)C(=O)N[C@@H](Cc1ccc(O)cc1)C(=O)N[C@@H](CCSC)C(=O)N[C@@H](CC(C)C)C(=O)N[C@@H](CCCNC(=N)N)C(=O)N[C@@H](CCCCN)C(=O)N[C@@H](CCCNC(=N)N)C(=O)N[C@@H](CCCNC(=N)N)C(=O)N[C@@H](CCCCN)C(=O)N[C@@H](CCCNC(=N)N)C(=O)O)[C@@H](C)CC [P16/16]
inhibition of HPV18 PsV infection: potently inhibited infection
